Each structure is given as a SMILES string.

What all share (format): in vivo, mouse
Series [1] in a line: Serum calcium levels after Compound A treatment. Conditions: 0.03 μg/Kg per os daily for 4 days before LPS injection, NOD mice. On the procedure:
In this experiment the capacity of Compound A to inhibit LPS-induced IL-12 and IFN-γ production in vivo is tested. Mice were pre-treated with vehicle or with 0.03 μg/Kg Compound A administered per os daily for 4 days before LPS injection.
FIG. 3. […] Compound A (0.03 μg/Kg) was administered orally in miglyol to NOD mice 72, 48, 24 and 1 h before LPS injection. IFN-γ, IL-12p75 and serum calcium levels were quantified 3 h post LPS injection. Bars represent the mean ±SE of 10 mice/group. The P values were calculated by Mann-Whitney U test (* indicates P<0.05 vs. vehicle-treated NOD mice).

Series [2] relates to CD4+ cells. Put plainly: Proliferation and IFN-γ secretion of CD4+ cells following TCR ligation. As to the method:
Single cell suspensions from pancreatic lymph nodes or spleen were incubated with anti-CD4 mab-coated Microbeads (Miltenyi Biotec) and applied onto Mini-MACS columns (Miltenyi Biotec). Purified CD4^+ cells (6×10^5/well) were cultured for 48 h in round-bottom 96-well plates (Costar) pre-coated with 3 μg/ml purified anti-TCR mAb (ATCC HB 218; American Type Culture Collection, Manassas, Va.) with or without 100 U/ml IL-2 and/or 10 μg/ml anti-CD28 mAb. Cultures were performed in synthetic HL-1 medium (Ventrex Laboratories, Portland, Me.) supplemented with 2 mM L-glutamine and 50 μg/ml gentamicin (Sigma). To measure cell proliferation, cultures were pulsed 8 h before harvesting with 1 μCi [^3H]TdR ([…]; Radiochemical Center, Amersham, U.K.). Incorporation of [^3H]TdR was measured by liquid scintillation spectrometry. Alternatively, splenic or pancreatic lymph node CD4^+CD25^+ and CD4^+CD25^− cells were sorted with MultiSort Kit (Miltenyi Biotec, Auburn, Calif.).
Cytokines were quantified by two-sites ELISA. IFN-γ was determined using paired mAb from PharMingen (San Diego, Calif.). For capture, the mAb was AN-18.17.24. Samples were titrated and incubated overnight at 4° C. To detect bound IFN-γ plates were then incubated with biotinylated XMG1.2 mAb. […] The plates were washed again and incubated with the developing substrate p-nitrophenylphosphate disodium (Sigma) in diethanolamine buffer (pH 9.6; 100 μl/well). The reaction was stopped by adding 50 μl/well NaOH 3N, and absorbance was read at 405 nm. ELISA for IL-12p75 was performed as described (Gately, M. K., et al., Current Protocols Immunol. 1995, 3, 15:6.16.11-16.16.15). Cytokines were quantified from two to three titration points using standard curves generated by purified recombinant mouse cytokines and results expressed as cytokine concentration in ng or pg/ml. Detection limits were 15 pg/ml for both cytokines.
FIG. 5. (page 5/9) Proliferation and IFN-γ secretion following TCR ligation. Splenic and pancreatic lymph node CD4^+ cells from untreated 8 week-old (□) or 20 week-old NOD mice treated 5×/week from 8 to 16 weeks of age with vehicle (□) or with 0.03 μg/KgCompound A (▪) were positively selected and stimulated (6×10^5 cells/well) with plate-bound anti-TCR mAb (10 μg/ml) in the presence of 100 U/ml IL-2 and/or 5 μg/ml anti-CD28 mAb. A. Cells were pulsed with [^3H]-thymidine during the last 8 hrs of a 48 h culture. Data are presented as mean ±SE of thymidine incorporation (Δ cpm) from triplicate cultures, background values were 790±100 cpm. B. After 48 h of culture, IFN-γ secretion was quantified by ELISA. Results, presented as mean ±SE of triplicate cultures, are from one representative experiment out of four performed.

In series [3] the test system is CD4+ T cells. Put plainly: Flow cytometric analysis of surface molecules on CD4+ cells from treated NOD mice. On the procedure:
Single-cell suspensions of pancreas-infiltrating, spleen or lymph node cells were incubated with anti-CD4 mAb-coated Microbeads (Miltenyi Biotec) and applied onto Mini-MACS columns (Miltenyi Biotec). Stainings were performed in the presence of 100 μg/ml mouse IgG using the following mAbs, all from PharMingen: CyChrome-labeled Streptavidin, FITC-labeled anti-CD4 (L3T4), PE-labeled anti-CD45RB (16A), PE-labeled anti-CD62L (MEL-14), PE-labeled anti-CD38 (rat IgG2a), FITC-labeled anti-CD69 (H1.2F3), and biotinylated anti-CD25 (7D4). Cells were analyzed with a FACScan flow cytometer equipped with CellQuest software (Becton Dickinson, Mountain View, Calif.).
Therefore, we analyzed the frequency of CD4^+ CD25^+ cells in 1,25-dihydroxy-16,23Z-diene-26,27-hexafluoro-19-nor vitamin D3-treated NOD mice. No difference was found in the percentage of splenic CD4^+ cells expressing CD25, CD38, CD69, CD62L and CD45RB in 20 week-old Compound A or vehicle-treated and untreated 8 week-old NOD mice (FIG. 6A).
FIG. 6. (page 6/9) Compound A treatment enhances the frequency of CD4^+ CD25^+ cells. Positively selected CD4^+ T cells were stained with mAbs specific for the indicated surface molecules and analyzed by flow cytometry. Acquisition was performed on CD4^+ cells. Bars represent the percent of spleen and lymph node CD4^+ T cells expressing the indicated surface molecules from untreated 8 week-old (□) or 20 week-old NOD mice treated 5×/week from 8 to 16 weeks of age with vehicle ( ? ) or with 0.03 μg/Kg Compound A (▪). Data are presented as mean ±SE of three separate experiments. The P values were calculated by Mann-Whitney U test (* indicates P<0.05 vs. 8 week-old NOD mice).

The subject of series [4] is aortic allografts. Put plainly: Aortic allograft histology: inflammatory cell infiltrate. The note with it: 0.03 μg/kg p.o., 60 days after transplantation. On the procedure: Histology: Segments of aorta grafts were snap-frozen in Tissue Tek (Miles Laboratories, Elkhart, Ind.), and stored at −80° C. Frozen sections, 5 μm thick, were stained with hematoxylin and eosin, or with biotinylated mAbs against CD4, CD8, B220, CD11b or CD11c (all purchased from PharMingen, San Diego, Calif.), followed by streptavidin-peroxidase conjugate. 3-amino-9-ethylcarbazole (DAKO, Carpenteria, Calif.) was used as chromogen, and hematoxylin as a counterstain. The effect of Compound A in preventing chronic rejection was evaluated using the aortic graft model in the mouse. Graft combinations were syngeneic or allogeneic. In allogeneic combinations, recipient mice were treated orally with vehicle alone or containing Compound A (0.03 μg/kg) fives times per week, from day 0 to day 30 relative to the time of grafting. Aortic grafts were analyzed 60 days after transplantation.

Setting [5] is: pancreatic lymph node CD4+ cells.
Where [6] appears, read: pancreatic lymph node CD4+ cells from 20 week-old mice.

Consider `C[C@H](C/C=C\C(O)(C(F)(F)F)C(F)(F)F)C1=CC[C@H]2/C(=C/C=C3C[C@@H](O)C[C@H](O)C3)CCC[C@]12C` [Compound A, 1,25-dihydroxy-16,23Z-diene-26,27-hexafluoro-19-nor vitamin D3], for which, in series [1], the “hypercalcemia (serum calcium levels)” value is on record as “did not induce hypercalcemia”. Moreover, in series [2] (setting [5]), the “IFN-γ secretion after addition of IL-2 and/or anti-CD28 mAb” value is “restored” and the “proliferation after addition of IL-2, alone or together with anti-CD28 mAb” value is on record as “not restored”. For the same compound, in series [2] (setting [6]), the “proliferation to insolubilized anti-TCR mAb vs age-matched controls” value is reported as “four times less” and the “proliferation to insolubilized anti-TCR mAb vs cells from 8 week-old mice” value stood at 10 times less. In addition, the “percentage of splenic CD4+ cells expressing CD25, CD38, CD69, CD62L and CD45RB” value in series [3] (20 week-old mice, vs vehicle-treated and untreated 8 week-old) is reported as “No difference”. In series [3] (pancreatic lymph node CD4+ cells, 8 week-old 75.9±0.5%, vehicle 74.2±1.6), the “percentage of CD45RBhigh” value stood at 65.1±0.3%. Besides, in series [3] (pancreatic lymph node cells, 8 week-old 11.6±0.1%, vehicle 13.0±0.1), the “percentage of CD4+ CD25+” value is given as 20.1±0.1%. Also, in series [3] (pancreatic lymph node cells, 8 week-old 11.8±0.1%, vehicle 10.6±1.0), the “percentage of CD4+ CD38+” value was determined as 25.2±0.2%. The “percentage of CD45RBlow CD4+ cells” value in series [3] (pancreatic lymph node cells, 8 week-old 12.65±0.43%, vehicle 34.8±0.01) amounted to 24.1±0.22%. The “double positive CD25+ CD38+ CD4+ cells” value in series [3] (pancreatic lymph node, 8 week-old 8%, vehicle 7%) is listed as 17%. Besides, in series [4], the “CD4, CD8 and B cells in the grafts” value was “complete absence”. Besides, in series [4] (vs vehicle), the “number of macrophages and dendritic cells in the grafts” value is reported as “profoundly reduced number”.

(Values after patent US20040214803A1, “Use of vitamin d3 analogue for the treatment of autoimmune diabetes” (priority 2001, published 2004).)
